Laboratory results published in patent US8895717B2, “Delivery of siRNA by neutral lipid compositions” (The Board of Regents of the University of Texas System, priority 2005, dated 2014).
d = 2'-deoxy (DNA); r = 2'-OH (RNA)

Experiments:
caspase-3 = experiment: Caspase-3 activity in ovarian cancer cells (DEVD-AFC); format: cell-based, human; settings: taxane-sensitive and taxane-resistant cell lines
Procedure: Ovarian cancer cells (1×10^6) in culture (six-well plates) were treated with or without docetaxel at the cell line specific IC50 or IC90 concentration for 24 hours. After washing with PBS, cells were lysed in 50 μL of cell lysis buffer provided. Caspase-3, caspase-8, and caspase-9 activities were measured with the appropriate apoptosis detection kit (BD Biosciences/Clontech, Palo Alto, Calif.), using substrate DEVD-AFC for caspase-3, IETD-AFC for caspase-8, and LEHD-AMC for caspase-9.

HeyA8 cells = experiment: In vivo therapy with DOPC-FAK siRNA, HeyA8 model; set-up: species or system nude mice; settings: for Incidence (%) / No. Nodules: siRNA in DOPC twice weekly, docetaxel 50 μg weekly
Procedure: siRNA for in vivo delivery was incorporated into the phospholipid 1,2-dioleoyl-sn-glycero-3-phosphatidylcholine (DOPC). DOPC and siRNA were mixed in the presence of excess tertiary-butanol at a ratio of […], as previously described (Landen et al., 2005). Tween-20 was added to the mixture at a ratio of 1:19. The mixture was vortexed, frozen in an acetone/dry ice bath, and lyophilized. Before in vivo administration, this preparation was hydrated with normal (0.9%) saline at a concentration of 15 μg/ml to achieve the desired dose of 150-200 μl per injection. To estimate the quantity of siRNA not taken up by liposomes free siRNA was separated from liposomes by using filter units with a 30,000 nominal molecular weight limit (Millipore Corp, Billerica, Mass.). The liposomal suspension was added to the filters and centrifuged at 5,000 g for 40 min at room temperature. Fractions were collected, the material trapped in the filter was reconstituted with 0.9% saline, and the amount of siRNA in the collected fraction and eluent were measured by spectrophotometry.
To produce tumors, SKOV3ip1, Hey A8-MDR cells (1×10^6 cells/0.2 ml of HBSS) and Hey A8 cells (2.5×10^5 cells/0.2 ml of HBSS) were injected interperitoneally (i.p.) into the mice. For in vivo injections, cells were trypsinized and centrifuged at 1000 rpm for 7 minutes at 4° C., washed twice with PBS and reconstituted in serum-free Hank's balanced salt solution (HBSS, Life Technologies, Carlsbad, Calif.). Only single-cell suspensions with >95% viability, as determined by trypan blue exclusion, were used for the in vivo injections. Mice (n=10 per group) were monitored for adverse effects of therapy and were sacrificed on day 35 (SKOV3ip1) or day 28 (HeyA8 or HeyA8-MDR) or when any of the mice began to appear moribund. Mouse weight, tumor weight, and tumor distribution were recorded. Tissue specimens were snap frozen for lysate preparation, fixed in formalin for paraffin embedding or frozen on OCT compound (Miles, Inc., Elkhart, Ind.) for frozen slide preparation.
Based on the results of preliminary dose-response studies, a series of three separate therapy studies were initiated using the optimal FAK siRNA dosage. Tumor cells were injected i.p. and 7 days later, the mice were randomly assigned to five treatment groups: empty liposome twice weekly, non-specific control […] siRNA (3 μg) twice weekly, control FAK siRNA (3 μg) twice weekly in combination with 50 μg docetaxel weekly, FAK siRNA twice weekly and FAK siRNA (3 μg) twice weekly in addition to 50 μg docetaxel weekly.
The SKOV3ip1 or HeyA8 ovarian cancer cells were implanted into the peritoneal cavity of athymic nude mice for experiments designed to test the therapeutic potential of FAK-targeted inhibition of gene expression. Seven days later, therapy was started according to the following five treatment groups: 1) empty liposomes; 2) non-specific siRNA-DOPC; 3) docetaxel plus non-specific siRNA-DOPC; 4) FAK targeted siRNA-DOPC; and 5) docetaxel plus FAK-targeted siRNA-DOPC. The animals were sacrificed after 4 weeks of therapy and a necropsy was performed. The data for these therapies' effects on SKOV3ip1 and HeyA8 are summarized in FIGS. 6A and 6B, respectively. […] Treatment with FAK siRNA alone or docetaxel plus control siRNA were effective in inhibiting tumor growth (54 to 74%) in both cell lines compared with control (FIG. 13).

Substance	caspase-3 activity, siRNA alone (caspase-3)	Incidence (%) (HeyA8 cells)	No. Nodules (HeyA8 cells)	reduction of tumors compared with empty liposomes (HeyA8 cells)
FAK siRNA: sense r(CCACCUGGGCCAGUAUUAU)d(TT), antisense r(AUAAUACUGGCCCAGGUGG)d(TT); for in vivo delivery incorporated into DOPC (sense CCACCUGGGCCAGUAUUAUTT; antisense AUAAUACUGGCCCAGGUGGTT; sugars from the 5' end r19 d2, backbone not given here)	did not potentiate the activity of caspase-3	70	1.7	
control siRNA: sense r(UUUUCCGAACGUGUCACGU)dTT, antisense r(ACGUGACACGUUCGGAGAA)dTT, no homology with human mRNA; in vivo in DOPC (sense UUUUCCGAACGUGUCACGUTT; antisense ACGUGACACGUUCGGAGAATT; sugars from the 5' end r19 d2, backbone not given here)	did not potentiate the activity of caspase-3	100	4.0	about 39%
